From publication PMC7555839 (Frontiers in Microbiology, 2020)
Values after ≈ are worked out from the molar mass of the structure shown. Like-named read-outs stand apart in the source and are kept apart here.

Experiments:
[1] = test system: Salmonella typhimurium TA98; details: Positive control
[2] = test system: Salmonella typhimurium TA100; details: Positive control
[3] = test system: Salmonella typhimurium TA1535; details: Positive control
[4] = test system: Escherichia coli mutant [wp2 (pKM101)]; details: Positive control, + S9, 4 µg/well
[5] = test system: Salmonella typhimurium TA1537; experiment: Ames test; details: Positive control
[6] = test system: Staphylococcus aureus USA300 JE2; experiment: Broth microdilution (MIC/MBC); assay type: cell-based; details: USA300, broth microdilution, starter concentration of the tolerance assay, read-out: MIC value for USA300
MRSA strain 43484 = experiment: Mouse skin (wound) infection model, topical treatment; assay type: in vivo, Staphylococcus aureus; details: 2%, 50 μl topical twice daily for 3 days, female mice, skin biopsies day 4
Description: To study the effect of topical treatment with JBC 1847 against MRSA strain 43484, a mouse skin infection model was established. Initially, female mice (18–22 g) were orally treated with 45 μl nurofen (20 mg ibuprofen/ml) and anaesthetized with 0.15 ml s.c. of Zoletil mix. The fur was removed from an area of 6 cm^2 and a part of epidermis was subsequently scraped off to obtain a 1 cm^2 superficial skin lesion. The mice were inoculated with 10 μl of a saline solution containing approximately 10^7 CFU. The day after inoculation, topical treatment with 50 μl test compound was initiated and performed twice daily for a 3-day period. Fucidic acid was included as a positive control, and vehicle treatment was included as a negative control. Through the entire study, the behavior and clinical signs of the mice were carefully observed. Mice were killed the day after last treatment, and skin biopsies from the wounded area were collected. The skin samples were homogenized using a Dispomixer and serially diluted in saline/Triton X. To determine the bacterial concentration, 20 μl spots were transferred to MRSA Brilliance agar plates (Oxoid, Thermo Scientific, Roskilde, Denmark) and incubated 20–48 h at 35°C.
Data were statically analyzed and visualized using RStudio v3.6.3 ([R Core Team, 2020]) and Microsoft excel. In general, the values reflecting the bacterial concentration (CFU/ml) were transformed into a logarithmic scale. In the growth and viability assay, the mean numbers of the bacterial concentrations from the triplicates were plotted against time and standard deviations shown as error bars. To investigate differences in bacterial concentration between treatment groups in the in vivo assay, multiple group comparisons were performed using ANOVA and P < 0.05 considered significant. The data was visualized in a standard box plot.

[7] = test system: fusidic acid-resistant S. aureus isolates; parameters: method as in Castanheira et al., 2010; details: ref Castanheira et al., 2010; cited from earlier work
plasma proteins = details: cited from earlier work
S. aureus USA300 = experiment: Induced tolerance assay (23 days); details: for MIC: Staphylococcus aureus
MRSA strain = test system: MRSA strain; parameters: method as in Nehme et al., 2018; details: broth dilution method, ref Nehme et al., 2018; cited from earlier work
E. coli strains = test system: E. coli strains; parameters: method as in Nehme et al., 2018; details: broth dilution method, ref Nehme et al., 2018; cited from earlier work

Nc1ccc2cc3ccccc3cc2c1 [2-AA, 2-Aminoanthracene, reference compound]
Mean number of reverse mutated colonies ([1]; TA98, + S9, 0.6 µg/well): 332.0 ± 36.66 | Mean number of reverse mutated colonies ([2]; TA100, + S9, 0.6 µg/well): 240.0 ± 49.15 | Mean number of reverse mutated colonies ([3]; TA1535, + S9, 0.6 µg/well): 34.00 ± 5.20 | Mean number of reverse mutated colonies [4]: 161.33 ± 18.90 | Mean number of reverse mutated colonies ([5]; TA1537, + S9, 0.6 µg/well): 60.00 ± 5.00

O=[N+]([O-])c1ccc2c(c1)Cc1ccccc1-2 [2-NF, 2-Nitrofluorene, reference compound]
Mean number of reverse mutated colonies ([1]; TA98, −S9, 2 µg/well): 268.00 ± 28.84

CC(=O)O[C@H]1C[C@@]2(C)[C@@H](C[C@@H](O)[C@H]3[C@@]4(C)CC[C@@H](O)[C@@H](C)[C@@H]4CC[C@@]32C)/C1=C(\CCC=C(C)C)C(=O)O [Fusidic acid, reference compound]
MIC [6]: 0.03 µg/mL (≈ 0.0581 µM) | Reduction of bacterial counts compared with the vehicle (MRSA strain 43484): 1.5 log10 CFU | MIC values (highly elevated) [7]: ≥ 512 µg/mL | PPB (plasma protein binding) (plasma proteins; ref Zeitlinger et al., 2011): approximately 98% | MIC (S. aureus USA300; USA300, 24 h, read-out: MIC Day 1): 0.03 µg/mL (≈ 0.0581 µM) | MIC (S. aureus USA300; USA300, 552 h, read-out: MIC Day 23): 7 µg/mL (≈ 13.5 µM) | Increase in MIC (S. aureus USA300; tolerance assay, during the 23 days): 233 fold

COc1ccc2nc3cc(Cl)ccc3c(NCCCNCCCl)c2c1 [ICR 191, Acridine Mutagen (ICR 191), reference compound]
Mean number of reverse mutated colonies ([5]; TA1537, −S9, 0.2 µg/well): 54.67 ± 16.26

CN(C)CCCN1c2ccccc2Sc2ccccc21 [Promazine]
MIC (MRSA strain): 128 µg/mL (≈ 450 µM) | MIC (E. coli strains): 128 µg/mL (≈ 450 µM)

[N-]=[N+]=[N-].[Na+] [SA, Sodium azide, reference compound]
Mean number of reverse mutated colonies ([2]; TA100, −S9, 0.24 µg/well): 176.0 ± 46.13 | Mean number of reverse mutated colonies ([3]; TA1535, −S9, 0.24 µg/well): 111.0 ± 9.54

CO/N=C(\C(=O)N[C@@H]1C(=O)N2C(C(=O)O)=C(CSc3nc(=O)c(=O)[nH]n3C)CS[C@H]12)c1csc(N)n1 [ceftriaxone]
PPB (plasma protein binding) (plasma proteins; ref Dutta et al., 2001): 90–95%
